In patent US9593197B2, “Trigger-responsive chain-shattering polymers” (THE BOARD OF TRUSTEES OF THE UNIVERSITY OF ILLINOIS, priority 2012, dated 2017):

Experiment: MTT cytotoxicity assay before and after UV treatment
Conditions: human, HeLa cells

With `CC[C@@]1(O)C(=O)OCc2c1cc1n(c2=O)Cc2cc3cc(O)ccc3nc2-1` [HCPT, 10-hydroxycamptothecin] the IC50 was 6.2 to 7.32 µM.
